Results on 1 compound are retold here after patent publication US9575054B2, “Identification of antitumor compounds using placenta” (Anthrogenesis Corporation, priority 2013, dated 2017).

Structures are written as SMILES.

Format in all cases: cell-based, human
Series [1] deals with HCT116 cells. Nature of the series: MTS cell viability, HCT116 cells seeded on decellularized placental vascular scaffold (DPVS). Conditions: 48 hours, control 100.00%. Here is the method: (§1) Blocks of decellularized placental vascular scaffold (DPVS) in 24-well plates were seeded with HCT116 cells (1×10^5 cells/per well), a human colorectal cancer cell line. As a control, HCT116 cells were cultured in wells only, i.e., in the absence of DPVS. Trichostatin A (TSA), a drug contemplated for use in the treatment of cancer, was added to the DPVS/cells or cells alone at concentrations of 20 μM and 100 μM, or was not added at all (as a control). After 48 hours of culture, cell viability was measured by MTS assay. […] Thus, DPVS can be used a platform for assessing cancer cell killing by potential antitumor compounds.

Series [2] has as its system MDA-MB231/Luc and CRL1803-TT (thyroid tissue carcinoma) cells. The series is described as follows: Calcitonin ELISA of culture medium from tumor cells in placental cotyledon. The settings on record: TSA 100 ng/mL, 10-day culture, single cotyledon, FIG. 1B. The procedure:
(§2) Trichostatin A (TSA, 100 ng/mL) was added to the growth medium (300 mL) and the cells were cultured for 10 days in a bioreactor. As a control, MDA-MB231/Luc and CRL1803-TT were infused into the vasculature of a single isolated cotyledon (3×10^6 cells/cotyledon) and cultured in growth medium only for 10 days in a bioreactor.
(§3) Culture medium was collected throughout the culture period and measured for Calcitonin levels by ELISA. In addition, at the end of the culture (day-10), the numbers of viable cells in both the TSA-treated and control cotyledons were determined by MTS assay.
A general note: In an ELISA, binding on a coated surface is turned into a signal by an enzyme label.

In series [3] the test system is MDA-MB231/Luciferase cells. The series is described as follows: Luciferase activity (Xenogen IVIS) of MDA-MB231/Luciferase cells on DPVS. Conditions: TSA 100 ng/mL, 24 hours, cells on DPVS in 6-well plates; untreated 25.63×10^6. Here is the method: Cells expressing luciferase were detected visually and quantitatively, using the Xenogen IVIS spectrum, by measuring Luciferase activity of the cells, which is indicative of cell number.
To examine the anti-cancer drug effect on cancer cells grown in DPVS, 1.5×10^5 MDA-MB231/Luciferase cells (a human breast cancer (adenocarcinoma) cell line that expresses luciferase; Cell Biolabs) were seeded onto DPVS in 6-well plates. One set of cells/DPVS was treated with Trichostatin A (TSA, 100 ng/mL) for 24 hours. Luciferase expression by the TSA-treated cells cultured on DPVS was compared with control cultures comprising cells/DPVS that were not treated with TSA. […] Thus, DPVS can be used to study the ability of cancer drugs, e.g., TSA, to affect cancer cell growth in a three-dimensional context.

For series [4], the system named is HCT116 cells. The series is described as follows: MTS cell viability, HCT116 cells cultured in wells only. The settings on record: HCT116 alone, 48 hours, control 100.00%. The procedure: as §1
Series [5] has as its system MDA-MB231/Luc and CRL1803-TT (thyroid tissue carcinoma) cells. The series is described as follows: MTS viable cell number of tumor cells in decellularized placental cotyledon (bioreactor). Conditions: TSA 100 ng/mL, 10 days in bioreactor, single cotyledon, FIG. 1A. The procedure:
as §2, §3

Series [6] has as its system MDA-MB231/Luciferase positive cells. Nature of the series: Luciferase expression (IVIS imaging) of MDA-MB231/Luciferase cells in placental cotyledon. Conditions: TSA 100 ng/mL, 4 days in bioreactor, single cotyledon. Here is the method:
MDA-MB231/Luciferase positive cells were infused into the vasculature of a single isolated cotyledon (40×10^6 cells/cotyledon). Trichostatin A (TSA, 100 ng/mL) was added to the growth medium (300 mL) and the cells were cultured for 4 days in a bioreactor. As a control, an equivalent number (40×10^6 cells/cotyledon) of MDA-MB231/Luc cells were infused into the vasculature of a single isolated cotyledon and cultured in growth medium only for 4 days in a bioreactor. After 4 days of culture, each cotyledon was transferred to growth medium comprising Luciferin (150 ng/mL) for 10 minutes. Both cotyledons then were analyzed using the IVIS imaging system.

For the compound `CC(/C=C/C(=O)NO)=C\[C@@H](C)C(=O)c1ccc(N(C)C)cc1` [TSA, Trichostatin A], the “Cell viability (% of untreated control)” value in series [1] (TSA 20 uM) worked out at 97.00%; in series [1] (TSA 100 uM), 73.32%; in series [4] (TSA 20 uM), 11.21%; in series [4] (TSA 100 uM), 10.36%. Besides, the “Calcitonin production by the cells” value in series [2] was “reduced”. The luciferase signal in series [3] was 8.22×10^6. Moreover, the “cell survival (viable cells by MTS) vs growth medium control” value in series [5] is “reduced cell survival”. Moreover, the “luciferase expression vs cotyledon cultured in the absence of TSA” value in series [6] is reported as “marked decrease in luciferase expression”.
